Experimental data published in ChEMBL document CHEMBL1156421, “ApoA-I mimetic peptides with differing ability to inhibit atherosclerosis also exhibit differences in their interactions with membrane bilayers” (J Biol Chem, 2007).

Experiments:
[1] = Elimination half life in apoE deficient C57BL/6J mouse at 20 ug, ip; type: ADME, organism-based; conditions: in vivo
[2] = system: Mus musculus; test: Cmax in apoE deficient C57BL/6J mouse at 20 ug, ip; type: ADME, organism-based; set-up: dose 20 ug, route intraperitoneal; conditions: in vivo, at 20 µg
[3] = Time to Cmax in apoE deficient C57BL/6J mouse at 20 ug, ip; type: ADME, organism-based; conditions: in vivo
[4] = system: Mus musculus; test: Antiinflammatory activity in apoE deficient C57BL/6J mouse assessed as inhibition of atherosclerosis lesion area at 20 ug/day, ip administered for 4 weeks measured after 6 weeks; type: functional

SMILES	half-life [1]	Cmax [2]	Tmax [3]	Activity [4]
CC(C)C[C@H](NC(=O)[C@H](Cc1c[nH]c2ccccc12)NC(=O)[C@H](CC(=O)O)NC([14CH3])=O)C(=O)N[C@@H](CCCCN)C(=O)N[C@@H](C)C(=O)N[C@@H](Cc1ccccc1)C(=O)N[C@@H](Cc1ccc(O)cc1)C(=O)N[C@@H](CC(=O)O)C(=O)N[C@@H](CCCCN)C(=O)N[C@H](C(=O)N[C@@H](C)C(=O)N[C@@H](CCC(=O)O)C(=O)N[C@@H](CCCCN)C(=O)N[C@@H](Cc1ccccc1)C(=O)N[C@@H](CCCCN)C(=O)N[C@@H](CCC(=O)O)C(=O)N[C@@H](C)C(=O)N[C@@H](Cc1ccccc1)C(N)=O)C(C)C	126 min	12.29%	28.8 min	20400 um2
CC(C)C[C@H](NC(=O)[C@H](Cc1ccccc1)NC(=O)[C@H](CCC(=O)O)NC(=O)[C@H](CCCCN)NC(=O)[C@H](Cc1ccccc1)NC(=O)[C@H](C)NC(=O)[C@H](CCC(=O)O)NC(=O)[C@H](C)NC(=O)[C@H](Cc1ccccc1)NC(=O)[C@H](CCCCN)NC(=O)[C@H](CC(=O)O)NC(=O)[C@H](Cc1ccc(O)cc1)NC(=O)[C@@H](NC(=O)[C@H](C)NC(=O)[C@H](CCCCN)NC(=O)[C@H](Cc1c[nH]c2ccccc12)NC(=O)[C@H](CCCCN)NC(=O)[C@H](CC(=O)O)NC([14CH3])=O)C(C)C)C(N)=O	32.4 min	5.52%	16.8 min	15800 um2
